Measured values as given in patent publication US20250108038A1 (priority 2023, published 2025).
Where “and” joins values, the source holds several entries; their conditions need not be identical. Equal values may be shown once.

Tested on: Long Evans rats
Assay: Behavioral satiety sequence (BSS)
Type: in vivo, Long Evans rat
From the text: The Behavioural Satiety Sequence (BSS) is a technique used to evaluate physiological satiety. It is based on the expression of a sequence of behaviors including eating, grooming, locomotor activity, followed by resting, which are typically observed in rodents post-ingestion (Halford et al, 1998, Pharmacology Biochemistry and Behaviour. 61(2): 159-168). The BSS is a widely used model for determining the effects of novel pharmaceuticals on food intake and measures of satiety in rodents (Oliveira et al, 2011, Revista de Nutrição. 24(4) 619-628), and to discriminate the cause of reduced food intake following pharmacological manipulation. For example, treatments that may reduce food intake by non-specific mechanisms, such as immobility, malaise, and taste adulteration, will disrupt this sequence (Halford et al, 1998, Pharmacology Biochemistry and Behaviour. 61(2): 159-168).
Specifically, 12 male Long-Evans rats were food-deprived for 22 h with a 2 h feeding period each day. Rats were trained to consume daily food during the 2 h period over 25 days. The testing phase was initiated once the rats consistently consumed 16-18 g of food per day with ≤10% variance in amount of feed consumed. Feeding took place in designated individual boxes in a quiet room separate from the housing room. Continuous remote monitoring via video camera during feeding was used to assess the BSS. Food consumption was measured by weighing the total available food before and after the 2 h feeding window, correcting for spillage. Lorcaserin (1 mg/kg) was included as a reference control (Higgins et al, 2011, Neuropsychopharmacology. 37(5): 1177-1191). Subjects were tested using a repeated-measures, Latin square design with 2-3 days wash-out between treatment cycles.
On scheduled test days, animals were monitored remotely via video camera during the feeding access period. The occurrence of four mutually exclusive behaviors (eating/drinking, grooming, active, rest) were individually scored. Over the 2 h feeding period, behaviors were assessed every 30 seconds. Scores were compiled into 23 5 min timebins (timebin 24 was removed due to early removal of animals) and the frequency of each behavior within each timebin was calculated to determine a temporal frequency of each measure (Rodgers et al, 2010, Pharmacology Biochemistry and Behaviour. 97: 3-14). Percentage time was plotted for each behavioral sequence in each timebin to compare between treatment groups (Higgins et al, 2011, Neuropsychopharmacology. 37(5): 1177-1191).

[1] = Compound I-19 0.3 mg/kg, raw score per animal (LT-1 to LT-12)
[2] = Compound I-19 1 mg/kg i.p., AVG of the group
[3] = Compound I-19 1 mg/kg i.p., raw score per animal
[4] = Compound I-19 1 mg/kg, AVG of 12 animals

## Clc1ccc(C2(OCC3OCCO3)c3ccccc3C3=NCCN32)cc1 (stereo not drawn) [Compound I-19]
[1]
  BSS scoring G (grooming), Time Bin 22 (105-110 TOTAL): 0 (11×) and 1
  BSS scoring G (grooming), Time Bin 23 (110-115 TOTAL): 1 (4×) and 0 (7×) and 2
  BSS scoring G (grooming), Time Bin 24 (115-120 TOTAL): 0 (7×) and 1 (5×)
  BSS scoring R (resting), Time Bin 19 (90-95 TOTAL): 1 (5×) and 0 (5×) and 2 and 6
  BSS scoring R (resting), Time Bin 20 (95-100 TOTAL): 0 (6×) and 1 (3×) and 4 and 2 (2×)
  BSS scoring R (resting), Time Bin 21 (100-105 TOTAL): 0 (5×) and 1 (2×) and 3 (3×) and 2 and 10
  BSS scoring R (resting), Time Bin 22 (105-110 TOTAL): 0 (6×) and 4 and 10 and 6 and 1 and 2 (2×)
  BSS scoring R (resting), Time Bin 23 (110-115 TOTAL): 0 (7×) and 3 and 6 (2×) and 2 (2×)
  BSS scoring R (resting), Time Bin 24 (115-120 TOTAL): 0 (7×) and 10 and 6 and 7 and 1 (2×)
[2]
  BSS scoring A (active), Time Bin 1 (0-5 TOTAL), AVG: 0.11
  BSS scoring A (active), Time Bin 2 (5-10 TOTAL), AVG: 0.04
  BSS scoring A (active), Time Bin 3 (10-15 TOTAL), AVG: 0.07
  BSS scoring A (active), Time Bin 4 (15-20 TOTAL), AVG: 0.02
  BSS scoring A (active), Time Bin 5 (20-25 TOTAL), AVG: 0.10
  BSS scoring A (active), Time Bin 6 (25-30 TOTAL), AVG: 0.17
  BSS scoring E (eating/drinking), Time Bin 1 (0-5 TOTAL), AVG: 0.88
  BSS scoring E (eating/drinking), Time Bin 2 (5-10 TOTAL), AVG: 0.88
  BSS scoring E (eating/drinking), Time Bin 3 (10-15 TOTAL), AVG: 0.88
  BSS scoring E (eating/drinking), Time Bin 4 (15-20 TOTAL), AVG: 0.93
  BSS scoring E (eating/drinking), Time Bin 5 (20-25 TOTAL), AVG: 0.83
  BSS scoring E (eating/drinking), Time Bin 6 (25-30 TOTAL), AVG: 0.80
  BSS scoring G (grooming), Time Bin 1 (0-5 TOTAL), AVG: 0.02
  BSS scoring G (grooming), Time Bin 2 (5-10 TOTAL), AVG: 0.07
  BSS scoring G (grooming), Time Bin 3 (10-15 TOTAL), AVG: 0.03
  BSS scoring G (grooming), Time Bin 4 (15-20 TOTAL), AVG: 0.03
  BSS scoring G (grooming), Time Bin 5 (20-25 TOTAL), AVG: 0.03
  BSS scoring G (grooming), Time Bin 6 (25-30 TOTAL), AVG: 0.01
  BSS scoring R (resting), Time Bin 1 (0-5 TOTAL), AVG: 0.00
  BSS scoring R (resting), Time Bin 2 (5-10 TOTAL), AVG: 0.01
  BSS scoring R (resting), Time Bin 3 (10-15 TOTAL), AVG: 0.02
  BSS scoring R (resting), Time Bin 4 (15-20 TOTAL), AVG: 0.03
  BSS scoring R (resting), Time Bin 5 (20-25 TOTAL), AVG: 0.03
  BSS scoring R (resting), Time Bin 6 (25-30 TOTAL), AVG: 0.03
[3]
  BSS scoring A (active), Time Bin 1 (0-5 TOTAL): 0 (3×) and 1 (5×) and 2 (4×)
  BSS scoring A (active), Time Bin 2 (5-10 TOTAL): 0 (8×) and 2 and 1 (3×)
  BSS scoring A (active), Time Bin 3 (10-15 TOTAL): 0 (4×) and 1 (8×)
  BSS scoring A (active), Time Bin 4 (15-20 TOTAL): 0 (10×) and 1 (2×)
  BSS scoring A (active), Time Bin 5 (20-25 TOTAL): 2 (2×) and 0 (5×) and 1 (4×) and 4
  BSS scoring A (active), Time Bin 6 (25-30 TOTAL): 2 (3×) and 0 (5×) and 7 and 3 (2×) and 1
  BSS scoring E (eating/drinking), Time Bin 1 (0-5 TOTAL): 10 (3×) and 9 (4×) and 7 and 8 (4×)
  BSS scoring E (eating/drinking), Time Bin 2 (5-10 TOTAL): 10 (4×) and 8 (4×) and 9 (3×) and 7
  BSS scoring E (eating/drinking), Time Bin 3 (10-15 TOTAL): 10 (3×) and 9 (5×) and 8 (3×) and 7
  BSS scoring E (eating/drinking), Time Bin 4 (15-20 TOTAL): 10 (5×) and 9 (6×) and 8
  BSS scoring E (eating/drinking), Time Bin 5 (20-25 TOTAL): 7 (2×) and 10 (3×) and 9 (4×) and 8 (2×) and 4
  BSS scoring E (eating/drinking), Time Bin 6 (25-30 TOTAL): 6 and 10 (5×) and 1 and 7 (2×) and 9 and 8 (2×)
  BSS scoring G (grooming), Time Bin 1 (0-5 TOTAL): 0 (10×) and 1 (2×)
  BSS scoring G (grooming), Time Bin 2 (5-10 TOTAL): 0 (6×) and 2 (2×) and 1 (4×)
  BSS scoring G (grooming), Time Bin 3 (10-15 TOTAL): 0 (9×) and 1 (2×) and 2
  BSS scoring G (grooming), Time Bin 4 (15-20 TOTAL): 0 (9×) and 1 (3×)
  BSS scoring G (grooming), Time Bin 5 (20-25 TOTAL): 1 (4×) and 0 (8×)
  BSS scoring G (grooming), Time Bin 6 (25-30 TOTAL): 0 (11×) and 1
  BSS scoring R (resting), Time Bin 1 (0-5 TOTAL): 0
  BSS scoring R (resting), Time Bin 2 (5-10 TOTAL): 0 (11×) and 1
  BSS scoring R (resting), Time Bin 3 (10-15 TOTAL): 0 (10×) and 1 (2×)
  BSS scoring R (resting), Time Bin 4 (15-20 TOTAL): 0 (9×) and 1 (3×)
  BSS scoring R (resting), Time Bin 5 (20-25 TOTAL): 0 (9×) and 1 (2×) and 2
  BSS scoring R (resting), Time Bin 6 (25-30 TOTAL): 2 and 0 (10×) and 1
[4]
  BSS scoring A (active), Time Bin 13 (60-65 TOTAL), AVG: 0.09
  BSS scoring A (active), Time Bin 14 (65-70 TOTAL), AVG: 0.13
  BSS scoring A (active), Time Bin 15 (70-75 TOTAL), AVG: 0.17
  BSS scoring A (active), Time Bin 16 (75-80 TOTAL), AVG: 0.16
  BSS scoring A (active), Time Bin 17 (80-85 TOTAL), AVG: 0.18
  BSS scoring A (active), Time Bin 18 (85-90 TOTAL), AVG: 0.12
  BSS scoring E (eating/drinking), Time Bin 13 (60-65 TOTAL), AVG: 0.73
  BSS scoring E (eating/drinking), Time Bin 14 (65-70 TOTAL), AVG: 0.73
  BSS scoring E (eating/drinking), Time Bin 15 (70-75 TOTAL), AVG: 0.65
  BSS scoring E (eating/drinking), Time Bin 16 (75-80 TOTAL), AVG: 0.64
  BSS scoring E (eating/drinking), Time Bin 17 (80-85 TOTAL), AVG: 0.68
  BSS scoring E (eating/drinking), Time Bin 18 (85-90 TOTAL), AVG: 0.54
  BSS scoring G (grooming), Time Bin 13 (60-65 TOTAL), AVG: 0.06
  BSS scoring G (grooming), Time Bin 14 (65-70 TOTAL), AVG: 0.03
  BSS scoring G (grooming), Time Bin 15 (70-75 TOTAL), AVG: 0.05
  BSS scoring G (grooming), Time Bin 16 (75-80 TOTAL), AVG: 0.03
  BSS scoring G (grooming), Time Bin 17 (80-85 TOTAL), AVG: 0.01
  BSS scoring G (grooming), Time Bin 18 (85-90 TOTAL), AVG: 0.03
